In patent US20200140556A1, “Methods and Compositions for Dectin-2 Stimulation and Cancer Immunotherapy” (The Board of Trustees of the Leland Stanford Junior …, priority 2017, published 2020):

Key:
PDAC cells = experiment: High-mannose glycan display by kifunensine-treated PDAC cells (concavalin A staining, flow cytometry); format: cell-based; settings: tumor cells treated 3 days
Experimental: (§1) FIG. 5A-5D. Mannosidase inhibition with kifunensine induces high-mannose glycan display and increases tumor cell immunogenicity. (FIG. 5A-5C) PDAC cells were treated with kifunensine for 3 days prior to flow cytometric analysis (FIG. 5A) or coculture with TAM (FIG. 5B, FIG. 5C). (FIG. 5A) PDAC cells stained with the mannose-binding lectin, concavalin A. (FIG. 5B, FIG. 5C) Pretreated PDAC cells were labeled with CSFE and cocultured overnight with TAM to assess cytokine production (FIG. 5B) and tumor cell uptake (FIG. 5C) by Dectin-2-expressing TAM. In some experiments, TAM were treated with Dectin-2-blocking antibodies prior to coculture with PDAC cells (FIG. 5C). *, p<0.05 by Student's t-test. (FIG. 5D) Subcutaneous PDAC tumors from kifunensine-treated mice (i.p., q2d for 7 days) were analyzed by flow cytometry. CD8 T cells (CD8^+CD90^+) among total tumor-infiltrating immune cells are gated.

subcutaneous PDAC tumors = experiment: Subcutaneous PDAC tumors from kifunensine-treated mice (flow cytometry); format: in vivo; settings: i.p., q2d for 7 days
Experimental: as §1

[1] = tested on: tumor-associated myeloid cells (TAM cells); experiment: Coculture of kifunensine-pretreated PDAC cells with TAM (cytokine production, tumor cell uptake); format: cell-based; settings: overnight coculture; Dectin-2-dependent
Experimental: as §1

monocytes = experiment: TNFα production by monocytes pretreated with conditioned medium +/- GM-CSF; format: cell-based, mouse
Experimental: (§2) FIG. 27A-27G. […] (FIG. 27A, FIG. 27B) Dectin-2 expression by mouse (FIG. 27A) or human (FIG. 27B) monocytes cultured for 18 hr with media supplemented or not with GM-CSF. (C-E) TNFα production by mouse monocytes pretreated with 3T3 fibroblast-conditioned medium+/−GM-CSF (FIG. 27C) or LMP tumor-conditioned medium+/−GM-CSF-neutralizing antibodies (FIG. 27D) or by human monocytes pretreated as indicated (FIG. 27E). (FIG. 27F) LMP-bearing mice treated with mannan (12.5 mg/kg i.v. q2d×2 wk) and the indicated anibodies (10 mg/kg i.p. q2d). (FIG. 27G) Heatmap depicting correlations between expression of Dectin-2 and the indicated genes in human cancer tissues. Gene expression data were obtained from TCGA and analyzed to obtain Spearman's correlation coefficients. **, p<0.01; ****, p<0.0001 by Student's t-test (B) or two-way ANOVA with post hoc Tukey's (F) test.

[2] = tested on: Dectin-2 expression by human monocytes; experiment: Dectin-2 expression by human monocytes cultured with or without GM-CSF (flow cytometry); format: cell-based
Experimental: (§3) FIG. 4A-4D. GM-CSF induces Dectin-2 expression and sensitizes tumors to Dectin-2 stimuli. (FIG. 4A-4C) Murine (FIG. 4A, FIG. 4B) and human (FIG. 4C) monocytes were cultured for 24 hr in media supplemented or not with GM-CSF (50 ng/mL) prior to flow cytometric analysis of Dectin-2 expression (FIG. 4A, FIG. 4C) or stimulation with furfurman and analysis of TNFα production (FIG. 4B). […] (FIG. 4D) Mice bearing s.c. CT26 tumors were treated with mannan (i.v.) and/or GM-CSF (i.t.) starting on day 6 post-tumor implantation.
as §2, with “test. […]” for “test.”

s.c. CT26 tumors = s.c. CT26 tumors treated with mannan (i.v.) and/or GM-CSF (i.t.); format: in vivo, mice; settings: from day 6
Experimental: as §3
as §3, with “(FIG.” for “FIG. 4A-4D. GM-CSF induces Dectin-2 expression and sensitizes tumors to Dectin-2 stimuli. (FIG.”, “production.” for “production (FIG. 4B).”

[3] = tested on: Dectin-2 expression by murine monocytes; experiment: Dectin-2 expression by murine monocytes cultured with or without GM-CSF (flow cytometry); format: cell-based
Experimental: as §3
as §2, with “test. […]” for “test.”

TAMs = experiment: Stimulation of TAMs by Man2-T785 conjugate in solution; format: cell-based; settings: stimuli in solution, low / equivalent concentrations
Excerpt: FIG. 21. Data showing synergism when a Dectin-2 agonist (in this case 65% Man2 100-mer) is conjugated to an immunostimulatory agent (in this case TLR7/8 agonist T785), yielding a glycopeptide conjugate (Man2-T785) that strongly stimulates cells in soluble form.
Synergistic immunostimulatory effects were also observed for the conjugate in vitro. […] Also surprising, the attachment of the TLR7/8 agonist changed the behavior of the Man2 glycopeptides in vitro. Whereas Man2 glycopeptides typically require immobilization (e.g., on a plate or cell) to strongly activate TAMs, the results shown were obtained with the stimuli in solution. […] The same is true of the Man2-antibody conjugates described elsewhere in this disclosure. FIG. 22A presents a schematic of the synthesis used to generate the Man2-T785 conjugate used in FIGS. 20 and 21. Synthetic schemes similar to that depicted in FIG. 22A could also be used to prepare conjugates using R848 (FIG. 22C) and other TLR7/8 ligands.

O=C1N[C@@H]2[C@@H](O)[C@@H](O)[C@H](O)[C@@H](CO)N2C1=O [kifunensine]
high-mannose glycans on the cell surface (PDAC cells): sharp increase in high-mannose glycans on the cell surface | T cell infiltration into tumors (subcutaneous PDAC tumors): led to T cell infiltration into tumors | high-mannose glycan display by tumor cells in vivo (subcutaneous PDAC tumors): increased high-mannose glycan display by tumor cells | TAM activation by treated tumor cells (cytokine production, tumor cell uptake) [1]: activated tumor-associated myeloid cells (TAM cells)

GM-CSF: granulocyte-macrophage colony-stimulating factor
sensitivity to Dectin-2 stimuli (TNFα production) (monocytes): sensitizes TAMs to Dectin-2 stimuli | Dectin-2 expression ([2]; 18 hr): drives Dectin-2 expression | Dectin-2 expression ([2]; GM-CSF 50 ng/mL, 24 hr): induced Dectin-2 expression | tumor sensitivity to Dectin-2 stimuli (tumor volume) (s.c. CT26 tumors): sensitized tumors to Dectin-2 stimuli | Dectin-2 expression ([3]; mouse monocytes, 18 hr): drives Dectin-2 expression | Dectin-2 expression ([3]; murine monocytes, GM-CSF 50 ng/mL, 24 hr): induced Dectin-2 expression

CCCCc1nc2c(N)nc3ccccc3c2n1CCCCN [T785, 1-(4-aminobutyl)-2-butyl-1H-imidazo[4,5-c]quinolin-4-amine]
TAM stimulation (TAMs): did not
